Experimental data from patent US20060121449A1, “Method for selection of compounds which inhibit clonal cell growth and use thereof” (priority 2002, published 2006).
Entries after “also recorded” stand apart in the source; their conditions may differ.

Columns and labels:
[1] = system: polyoma virus transformed BHK21/c13 cells, line S100T1; assay: Collocation inhibition test: clonal growth in sparsely and densely seeded areas of a cell density gradient of S100T1 cells in soft agar (Exp 13, 17, 19-26); conditions: for Significance: Exp 17 day 14;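 as to Clonal growth, H high density area of cell gradient, High: grades rise with clonal growth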;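 as to Clonal growth, H high density area of cell gradient, Low: grades rise with clonal growth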;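 as to Clonal growth, H high density area of cell gradient, Medium: grades rise with clonal growth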;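 as to Clonal growth, L low density area of cell gradient, High: grades rise with clonal growth and minus or plus-minus means none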;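 as to Clonal growth, L low density area of cell gradient, Low: grades rise with clonal growth and minus or plus-minus means none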;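 as to Clonal growth, L low density area of cell gradient, Medium: grades rise with clonal growth and minus or plus-minus means none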;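 as to all read-outs here: soft agar cultures in 24-well plates with a cell density gradient in the top layer, compounds applied from DMSO stocks, clonal growth scored in sparse versus dense areas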
Ehrlich ascites tumour = conditions: Exp 18
Protocol: Tumour cells harvested from ascitic mouse were mainly solitary.
The experiment describes transplantation of the malignant mouse Ehrlich ascites tumour to two adult male mice (NMRI/Bom). Each of them received 100000 cells intraperitonally. One mouse was treated two times a week with 4-OH-OPB intraperitonally.
Cells were injected 90 minutes after the addition of 4-OH-OPB to the suspension. The control received the same cell suspension without 4-OH-OPB.
At the same time, dilutions of 4-OH-OPB were injected intraperitonally to the transplanted mice in order to find the smallest active dose.
The cells from ascites in the untreated control mouse was frozen on serum with 10% DMSO. The cells were thawed in water of 37° C., diluted in serum, and pelleted by low speed centrifugation after the addition of 2 ml FBS, to remove DMSO.
Each animal received such cells suspended in portions of 1 ml in RPMI (pH˜6.9).
The frozen and thawed Ehrlich ascites cells are diluted in a volume of 1 ml RPMI (pH˜6.9) for each animal. No calf serum was added to the medium to avoid immunisation of the mice.
Cell number: 90000 tumour cells in 0.7 ml RPMI were injected intraperitonally to each animal.
The total cell number in the ampoule was 7.5 million cells. The cells were thawed, and 2 ml FBS was added before low speed centrifugation. […] Than separate vessels were prepared for each animal. The cell tube for animal number 3 received Colchicine as indicated in the table on day 0 one hour before the cells were injected.
After mixing the same volume was transferred from this tube to the last tube.
The content of the last two tubes was injected intraperitonally to each of the mice number 1 and 2 respectively.

[2] = system: polyoma virus transformed BHK21/c13 cells, clone S100T1; assay: Clonal test: clonal growth of S100T1 cells in soft agar (Exp 2, 4, 6, 15, 16); format: cell-based, hamster
[3] = Exp 13, 4-OH-OPB 1-3 μM, Colchicine 0.01-0.1 μM
[4] = Exp 13, High inhibitor conc. (Colchicine 100 nM), H: high cell density area
[5] = Exp 13, High inhibitor conc. (Colchicine 100 nM), L: low cell density area
[6] = Exp 13, Low inhibitor conc. (4-OH—OPB 1 μM, Colchicine 10 nM), H: high cell density area
[7] = Exp 13, Low inhibitor conc. (4-OH—OPB 1 μM, Colchicine 10 nM), L: low cell density area
[8] = Exp 13, Medium inhibitor conc. (4-OH—OPB 3 μM, Colchicine 33 nM), H: high cell density area
[9] = Exp 13, Medium inhibitor conc. (4-OH—OPB 3 μM, Colchicine 33 nM), L: low cell density area
[10] = preliminary results, Exp 13-18, 21-26, high concentration
[11] = preliminary results, Exp 13-18, 21-26, low concentration
[12] = preliminary results, Exp 13-18, 21-26, medium concentration

COc1cc2c(c(OC)c1OC)-c1ccc(OC)c(=O)cc1[C@@H](NC(C)=O)CC2 [Colchicine, reference compound]
Growth in locations with high cell density [1, 3]: did not inhibit clonal growth | Growth in locations with low cell density (sparsely seeded cells) [1, 3]: full inhibition on clonal growth of sparsely seeded cells; also recorded: inhibited growth in locations with low cell density even when using low doses | Growth, summary of results after 3 days incubation [1, 4]: +++ | Growth, summary of results after 4 days incubation [1, 4]: +++ | Growth, summary of results after 3 days incubation [1, 5]: − | Growth, summary of results after 4 days incubation [1, 5]: − | Growth, summary of results after 3 days incubation [1, 6]: +++ | Growth, summary of results after 4 days incubation [1, 6]: +++ | Growth, summary of results after 3 days incubation [1, 7]: − | Growth, summary of results after 4 days incubation [1, 7]: +− | Growth, summary of results after 3 days incubation [1, 8]: +++ | Growth, summary of results after 4 days incubation [1, 8]: +++ | Growth, summary of results after 3 days incubation [1, 9]: − | Growth, summary of results after 4 days incubation [1, 9]: − | Effect on growth in high- and low-density areas ([1]; Exp 17, 144000 S100T1 cells/well): did not inhibit the high-density areas significantly; also recorded: no complete clonal inhibition could be observed | Clonal growth, results read on the day 14 ([1]; Exp 17, a: close to densely seeded cell areas, High: Colchicine 1, Podophyllotoxin 3, Etoposide 200, 4-OH—OPB 6.7 μM in wells, DMSO 29.2 μl): (+) | Clonal growth, results read on the day 14 ([1]; Exp 17, a: close to densely seeded cell areas, Low: Colchicine 0.1, Podophyllotoxin 0.3, Etoposide 20, 4-OH—OPB 0.67 μM in wells, DMSO 1.16 μl): ++ | Clonal growth, results read on the day 14 ([1]; Exp 17, a: close to densely seeded cell areas, Medium: Colchicine 0.3, Podophyllotoxin 0.9, Etoposide 60, 4-OH—OPB 2 μM in wells, DMSO 6.8 μl): ++ | Clonal growth, results read on the day 14 ([1]; Exp 17, b: sparsely seeded areas in the same agar culture, High: Colchicine 1, Podophyllotoxin 3, Etoposide 200, 4-OH—OPB 6.7 μM in wells, DMSO 29.2 μl): (+) | Clonal growth, results read on the day 14 ([1]; Exp 17, b: sparsely seeded areas in the same agar culture, Low: Colchicine 0.1, Podophyllotoxin 0.3, Etoposide 20, 4-OH—OPB 0.67 μM in wells, DMSO 1.16 μl): ++ | Clonal growth, results read on the day 14 ([1]; Exp 17, b: sparsely seeded areas in the same agar culture, Medium: Colchicine 0.3, Podophyllotoxin 0.9, Etoposide 60, 4-OH—OPB 2 μM in wells, DMSO 6.8 μl): ++ | Clones in sparsely seeded locations of the agar ([1]; Exp 17, compared with 4-OH-OPB): allow the growth of a few small clones in sparsely seeded locations of the agar; also recorded: to allow the growth of a few small clones in sparsely | Significance ([1]; a: close to densely seeded cell areas, High: Colchicine 1, Podophyllotoxin 3, Etoposide 200, 4-OH—OPB 6.7 μM in wells, DMSO 29.2 μl): Possible | Significance ([1]; a: close to densely seeded cell areas, Low: Colchicine 0.1, Podophyllotoxin 0.3, Etoposide 20, 4-OH—OPB 0.67 μM in wells, DMSO 1.16 μl): No | Significance ([1]; a: close to densely seeded cell areas, Medium: Colchicine 0.3, Podophyllotoxin 0.9, Etoposide 60, 4-OH—OPB 2 μM in wells, DMSO 6.8 μl): No | Significance ([1]; b: sparsely seeded areas, High: Colchicine 1, Podophyllotoxin 3, Etoposide 200, 4-OH—OPB 6.7 μM in wells, DMSO 29.2 μl): Possible | Significance ([1]; b: sparsely seeded areas, Low: Colchicine 0.1, Podophyllotoxin 0.3, Etoposide 20, 4-OH—OPB 0.67 μM in wells, DMSO 1.16 μl): No | Significance ([1]; b: sparsely seeded areas, Medium: Colchicine 0.3, Podophyllotoxin 0.9, Etoposide 60, 4-OH—OPB 2 μM in wells, DMSO 6.8 μl): No | Clonal growth, H high density area of cell gradient, High [1, 10]: +++ | Clonal growth, L low density area of cell gradient, High [1, 10]: − | Clonal growth, H high density area of cell gradient, Low [1, 11]: +++ | Clonal growth, L low density area of cell gradient, Low [1, 11]: − | Clonal growth, H high density area of cell gradient, Medium [1, 12]: +++ | Clonal growth, L low density area of cell gradient, Medium [1, 12]: − | Effect on cell cloning in soft agar ([1]; preliminary results, in words): Growth in high density areas; also recorded: No growth in low density areas | tumour in abdominal wall, findings on section (Ehrlich ascites tumour; at killing, control 2 × 3 mm tumour): Lens sized | ascites with Ehrlich cells, findings on section (Ehrlich ascites tumour; at killing, control 4 ml): 1.5 mL | day 14 status (Ehrlich ascites tumour; day 14 after ip transplantation, mouse 1 killed, mice 2 and 3 marked '?'): Ascites | day 16 status (Ehrlich ascites tumour; day 16, killed because of signs of ascites): Ascites | Rescue of mice from transplanted Ehrlich tumour (Ehrlich ascites tumour; high dose mixed with the transplanted cells before injection): did not provide complete protection against the development of transplantable Ehrlich tumour; also recorded: not rescue the animal either. The conclusion is | weight gain in % (Ehrlich ascites tumour; one mouse each, ip: mouse 1 4-OH—OPB from day 1, mouse 2 Etoposide + 4-OH—OPB from day 1, mouse 3 Colchicine from day 0, control mouse 42.4): 23.8% | Effect on clonal growth at 0.01-0.1 μM ([2]; Exp 15, 32000 S100T1 cells/well): did not inhibit clonal growth | Colony inhibiting activity for dosage within a range that might be therapeutic ([2]; Exp 16, about 40000 S100T1 cells/well): the same activity possibly existed | Significance ([2]; Exp 16 day 14, Colchicine No 1 (lot 60K1932, solved in DMSO 8 days beforehand, stored frozen), 0.1 μM): doubtful | Growth ([2]; Exp 16 day 14, Colchicine No 1 (lot 60K1932, solved in DMSO 8 days beforehand, stored frozen), 0.1 μM in wells): (+ | Significance ([2]; Exp 16 day 14, Colchicine No 1 (lot 60K1932, solved in DMSO 8 days beforehand, stored frozen), 1 μM): doubtful | Growth ([2]; Exp 16 day 14, Colchicine No 1 (lot 60K1932, solved in DMSO 8 days beforehand, stored frozen), 1 μM in wells): (+ | Growth ([2]; Exp 16 day 14, Colchicine No 2 (lot 60K1932, solved in DMSO the same day), 0.1 μM in wells): (+ | Significance ([2]; Exp 16 day 14, Colchicine No 2 (lot 60K1932, solved in DMSO the same day), 0.1 μM, ” = as line above): ” and doubtful | Significance ([2]; Exp 16 day 14, Colchicine No 2 (lot 60K1932, solved in DMSO the same day), 1 μM): possible | Growth ([2]; Exp 16 day 14, Colchicine No 2 (lot 60K1932, solved in DMSO the same day), 1 μM in wells): (+) | Significance ([2]; Exp 16 day 14, Colchicine No 3 (lot 28H1229, solved in DMSO the same day), 0.1 μM): possible | Growth ([2]; Exp 16 day 14, Colchicine No 3 (lot 28H1229, solved in DMSO the same day), 0.1 μM in wells): (+) | Growth ([2]; Exp 16 day 14, Colchicine No 3 (lot 28H1229, solved in DMSO the same day), 0.22 μM in wells): (+) | Significance ([2]; Exp 16 day 14, Colchicine No 3 (lot 28H1229, solved in DMSO the same day), 0.22 μM, ” = as line above): ” and possible | Growth ([2]; Exp 16 day 14, Colchicine No 4 (lot 28H1229, solved in DMSO the same day), 0.46 μM in wells): (+) | Significance ([2]; Exp 16 day 14, Colchicine No 4 (lot 28H1229, solved in DMSO the same day), 0.46 μM, ” = as line above): ” and possible | Significance ([2]; Exp 16 day 14, Colchicine No 4 (lot 28H1229, solved in DMSO the same day), 1 μM): probable | Growth ([2]; Exp 16 day 14, Colchicine No 4 (lot 28H1229, solved in DMSO the same day), 1 μM in wells): (+)) | Significance ([2]; Exp 16 day 21, Colchicine No 1 (lot 60K1932, solved in DMSO 8 days beforehand, stored frozen), 0.1 μM): no | Growth ([2]; Exp 16 day 21, Colchicine No 1 (lot 60K1932, solved in DMSO 8 days beforehand, stored frozen), 0.1 μM in wells): + | Significance ([2]; Exp 16 day 21, Colchicine No 1 (lot 60K1932, solved in DMSO 8 days beforehand, stored frozen), 1 μM): doubtful | Growth ([2]; Exp 16 day 21, Colchicine No 1 (lot 60K1932, solved in DMSO 8 days beforehand, stored frozen), 1 μM in wells): (+ | Significance ([2]; Exp 16 day 21, Colchicine No 2 (lot 60K1932, solved in DMSO the same day), 0.1 μM): doubtful | Growth ([2]; Exp 16 day 21, Colchicine No 2 (lot 60K1932, solved in DMSO the same day), 0.1 μM in wells): (+ | Significance ([2]; Exp 16 day 21, Colchicine No 2 (lot 60K1932, solved in DMSO the same day), 1 μM): possible | Growth ([2]; Exp 16 day 21, Colchicine No 2 (lot 60K1932, solved in DMSO the same day), 1 μM in wells): (+) | Growth ([2]; Exp 16 day 21, Colchicine No 3 (lot 28H1229, solved in DMSO the same day), 0.1 μM in wells): (+ | Significance ([2]; Exp 16 day 21, Colchicine No 3 (lot 28H1229, solved in DMSO the same day), 0.1 μM, ” = as line above): ” and doubtful | Significance ([2]; Exp 16 day 21, Colchicine No 3 (lot 28H1229, solved in DMSO the same day), 0.22 μM): doubtful | Growth ([2]; Exp 16 day 21, Colchicine No 3 (lot 28H1229, solved in DMSO the same day), 0.22 μM in wells): (+ | Significance ([2]; Exp 16 day 21, Colchicine No 4 (lot 28H1229, solved in DMSO the same day), 0.46 μM): possible | Growth ([2]; Exp 16 day 21, Colchicine No 4 (lot 28H1229, solved in DMSO the same day), 0.46 μM in wells): (+) | Growth ([2]; Exp 16 day 21, Colchicine No 4 (lot 28H1229, solved in DMSO the same day), 1 μM in wells): (+ | Significance ([2]; Exp 16 day 21, Colchicine No 4 (lot 28H1229, solved in DMSO the same day), 1 μM, ” = as line above): ” and doubtful
